Measurements: ChEMBL document CHEMBL1155672, “Secobotrytriendiol and related sesquiterpenoids: new phytotoxic metabolites from Botrytis cinerea” (J Nat Prod, 2000)
Activity calls are given as the source filed them. No cut-off for these calls is given here.

Columns and labels:
Format in all cases: functional, organism-based
Nicotiana tabacum [1] = experiment: Phytotoxicity against Nicotiana tabacum at 1000 ppm after 7 days
Nicotiana tabacum [2] = experiment: Phytotoxicity against Nicotiana tabacum at 500 ppm after 7 days
Nicotiana tabacum [3] = experiment: Phytotoxicity against Nicotiana tabacum at 250 ppm after 7 days

Compound | Activity (Nicotiana tabacum [2]) | further results
CO[C@H]1O[C@H](OC)[C@@]2(C)CC(C)(C)[C@@H]3[C@@H](OC(C)=O)C[C@@H](C)[C@H]1[C@@]32O |  | Activity (Nicotiana tabacum [1]): Active
COC(=O)[C@H]1[C@H](C)C[C@H](OC(C)=O)[C@H]2C(C)(C)C[C@](C)(CO)[C@@]12O | Active | 
Cc1ccc2c(c1CO)[C@@](C)(CO)CC2(C)C | Active | 
CC1(C)C[C@](C)(CO)c2c1ccc(CO)c2CO |  | Activity (Nicotiana tabacum [3]): Active
C=CC1=C(/C(=C\C)CO)[C@@](C)(CO)CC1(C)C | Active | 
